Results from patent publication US9834567B1, “Crystalline form of cefamandole nafate compound, preparation and preparing method thereof” (TIANJIN UNIVERSITY, priority 2014, dated 2017).

What was measured:
Rabbits [1] = type: in vivo
Procedure: (§1) The novel crystalline form of Cefamandole Nafate compound of the present invention was tested by toxic reaction tests shown as follows (taking the crystalline form of Cefamandole Nafate obtained in Example 1 for example):
Rabbits were injected with 0.4˜2.1 g of Cefamandole Nafate each time with the interval of 15 min, and recording the changes of blood pressure and electrocardiogram.

Rabbits [2] = test: Toxic reaction test: 15-day daily intravenous injection in rabbits (renal); type: in vivo; details: 250 mg/kg intravenously daily for 15 days
Procedure: as §1
Rabbits were divided into 2 groups, every 4 animals in each group, and daily intravenously injected with 250 mg/kg Cefamandole Nafate for 15 days, while the control group was injected with 5 ml saline per day.

[3] = Toxic reaction test: acute toxicity (LD50) in mice; details: mouse, in vivo
Procedure: as §1
(§2) Mice were divided into 4 dose groups by weights, every 10 animals in each group, and administered by intravenous injection, subcutaneous injection and intraperitoneal injection with a concentration of […].

[4] = Toxic reaction test: acute toxicity (LD50) in rats; details: rat, in vivo, intravenous injection
Procedure: as §1, §2

[5] = Storage stability of the crystalline product; type: physicochemical
Procedure: Said method has the following advantageous effects: simple procedure, easy operation, and low energy consumption. The prepared product has a melting range of 160˜170° C. with good thermal stability, and is conducive to the long-term preservation. […] The product is easy to crush and processed into dosage forms of a pharmaceutical composition, as well as low cost, and easier to implement on commercial and industrial scale.

[6] = anesthetized rabbits, intravenous injection, 0.4~2.1 g each time
[7] = rabbits, dosage up to 4800 mg/kg

Cn1nnnc1SCC1=C(C(=O)[O-])N2C(=O)[C@@H](NC(=O)[C@H](OC=O)c3ccccc3)[C@H]2SC1.[Na+] [Cefamandole Nafate, (6R, 7R)-7-R-(2-formyloxy-2-phenylacetamide)-3-[[(1-methyl-1H-tetrazol-5-yl)thio]methyl]-8-oxo-5-thia-1-azabicyclo [4.2.0] oct-2-ene-2-carboxylate sodium salt]
breathing (Rabbits [1]; [6]): deepened and accelerated
electrocardiogram and heart rate (Rabbits [1]; [6]): did not change significantly
death (Rabbits [1]; rabbits, dosage further increased above 4800 mg/kg): death occurred
blood pressure (Rabbits [1]; [7]): significantly decreased
electrocardiogram (Rabbits [1]; [7]): prolonged in P-R interval, depressed in ST segment, and ventricular arrhythmias
respiration (Rabbits [1]; [7]): inhibited
renal tissue concentration (Rabbits [2]): increased
renal toxicity (Rabbits [2]): low

Cn1nnnc1SCC1=C(C(=O)[O-])N2C(=O)[C@@H](NC(=O)[C@H](OC=O)c3ccccc3)[C@H]2SC1.[Na+] [Example 1, (6R, 7R)-7-R-(2-formyloxy-2-phenylacetamide)-3-[[(1-methyl-1H-tetrazol-5-yl)thio]methyl]-8-oxo-5-thia-1-azabicyclo [4.2.0] oct-2-ene-2-carboxylate sodium salt]
LD50 ([3]; intravenous injection): 4220 mg/kg
LD50 ([3]; ip, intraperitoneal injection): 4500 mg/kg
LD50 ([3]; sc, subcutaneous injection): 7260 mg/kg
LD50 [4]: 3420 mg/kg
degradation after placing for a long time [5]: without degradation
